Reference: BindingDB's records for doi:10.1016/j.bmcl.2003.10.007 (Inotek Pharmaceuticals, 2003)
pIC50: −log10 of the molar value. Where a name gives a salt, the structure may show the parent alone.

Assay: Tested for inhibition of poly(ADP-ribose) polymerase-1 (PARP-1) in mouse using Cell protection assay

**Q.** With `Nc1ncnc2c1ncn2C1O[C@H](CNC(=O)CC(=O)Nc2cccc3c2CNC3=O)[C@@H](O)[C@H]1O` (stereo not given in full) as the compound, how does the pIC50 read?
**A.** 5.72

**Q.** With `Nc1cccc2c1CNC2=O` [4-Amino-2,3-dihydro-isoindol-1-one] as the compound, how does the pIC50 read?
**A.** 4.52

**Q.** With `CN1CCN(CCC(=O)Nc2cccc3c2CNC3=O)CC1` [3-(4-Methyl-piperazin-1-yl)-N-(1-oxo-2,3-dihydro-1H-isoindol-4-yl)-propionamide] as the compound, how does the pIC50 read?
**A.** < 4.52

**Q.** With `CCNCC(=O)Nc1cccc2c1CNC2=O` [2-Ethylamino-N-(1-oxo-2,3-dihydro-1H-isoindol-4-yl)-acetamide] as the compound, how does the pIC50 read?
**A.** 4.74

**Q.** With `Nc1ncnc2c1ncn2C1O[C@H](CNC(=O)/C=C/c2ccc(C(=O)Nc3cccc4c3CNC4=O)cc2)[C@@H](O)[C@H]1O` (stereo not given in full) as the compound, how does the pIC50 read?
**A.** 5.00

**Q.** With `Nc1ncnc2c1ncn2C1O[C@H](CNC(=O)CCC(=O)Nc2cccc3c2CNC3=O)[C@@H](O)[C@H]1O` (stereo not given in full) as the compound, how does the pIC50 read?
**A.** 7.00

**Q.** With `O=C(CN1CCOCC1)Nc1cccc2c1CNC2=O` [2-Morpholin-4-yl-N-(1-oxo-2,3-dihydro-1H-isoindol-4-yl)-acetamide] as the compound, how does the pIC50 read?
**A.** < 4.52

**Q.** With `O=C(Cn1cnc2ccccc21)Nc1cccc2c1CNC2=O` [2-Benzoimidazol-1-yl-N-(1-oxo-2,3-dihydro-1H-isoindol-4-yl)-acetamide] as the compound, how does the pIC50 read?
**A.** 5.52

**Q.** With `Nc1ncnc2c1ncn2C1O[C@H](C(=O)N2CCNCC2)[C@@H](O)[C@H]1O` (stereo not given in full) as the compound, how does the pIC50 read?
**A.** < 3.52

**Q.** With `Nc1ncnc2c1ncn2[C@@H]1O[C@H](C(=O)N2CCN(CC(=O)Nc3cccc4c3CNC4=O)CC2)[C@@H](O)[C@H]1O` [2-(4-((2S,3S,4R,5R)-5-(6-amino-9H-purin-9-yl)-3,4-dihydroxytetrahydrofuran-2-carbonyl)piperazin-1-yl)-N-(1-oxoisoindolin-4-yl)acetamide] as the compound, how does the pIC50 read?
**A.** 7.35

**Q.** With `CNc1ncnc2c1ncn2CC(=O)Nc1cccc2c1CNC2=O` [2-(6-Methylamino-purin-9-yl)-N-(1-oxo-2,3-dihydro-1H-isoindol-4-yl)-acetamide] as the compound, how does the pIC50 read?
**A.** 5.52

**Q.** With `O=C(CN1CCNCC1)Nc1cccc2c1CNC2=O` [N-(1-Oxo-2,3-dihydro-1H-isoindol-4-yl)-2-piperazin-1-yl-acetamide; hydrochloride] as the compound, how does the pIC50 read?
**A.** 4.74

**Q.** With `Nc1ncnc2c1ncn2C1O[C@H](CNC(=O)CCCCCCC(=O)Nc2cccc3c2CNC3=O)[C@@H](O)[C@H]1O` (stereo not given in full) as the compound, how does the pIC50 read?
**A.** 6.15

**Q.** With `Nc1ncnc2c1ncn2C1O[C@H](CNC(=O)CCCCCCCC(=O)Nc2cccc3c2CNC3=O)[C@@H](O)[C@H]1O` (stereo not given in full) as the compound, how does the pIC50 read?
**A.** 5.70

**Q.** With `O=C(CCCCCCC(=O)Nc1cccc2c1CNC2=O)NC[C@H]1OC(n2cnc3c(=O)[nH]cnc32)[C@H](O)[C@@H]1O` (stereo not given in full) as the compound, how does the pIC50 read?
**A.** 4.17

**Q.** With `O=C1N=Cc2ccccc21` [Isoindol-1-one] as the compound, how does the pIC50 read?
**A.** 4.52

**Q.** With `CN1CCN(CC(=O)Nc2cccc3c2CNC3=O)CC1` [2-(4-Methyl-piperazin-1-yl)-N-(1-oxo-2,3-dihydro-1H-isoindol-4-yl)-acetamide] as the compound, how does the pIC50 read?
**A.** < 4.52

**Q.** With `Nc1ncnc2c1ncn2C1OC(CNC(=O)CCC(=O)Nc2cccc(-c3ccccc3)c2)[C@@H](O)[C@H]1O` (stereo partly drawn) [N-[(3S,4R)-5-(6-Amino-purin-9-yl)-3,4-dihydroxy-tetrahydro-furan-2-ylmethyl]-N'-biphenyl-3-yl-succinamide] as the compound, how does the pIC50 read?
**A.** 5.30

**Q.** With `CNCC(=O)Nc1cccc2c1CNC2=O` [2-Methylamino-N-(1-oxo-2,3-dihydro-1H-isoindol-4-yl)-acetamide] as the compound, how does the pIC50 read?
**A.** < 4.52

**Q.** With `Nc1ncnc2c1ncn2C1O[C@H](CNC(=O)CCCCCC(=O)Nc2cccc3c2CNC3=O)[C@@H](O)[C@H]1O` (stereo not given in full) as the compound, how does the pIC50 read?
**A.** 5.52
